This is an account of results in patent US7067503B2, “17-aryl linker derivatised estrogen 3-sulphamates as inhibitors of steroid sulphatase” (priority 2000, dated 2006).

pIC50: −log10 of the molar value. Where only a bound is given, the exact number is not on record here.

One series addresses T1, STS (Homo sapiens, UniProt P08842).
T1 sequence (P08842 22-583): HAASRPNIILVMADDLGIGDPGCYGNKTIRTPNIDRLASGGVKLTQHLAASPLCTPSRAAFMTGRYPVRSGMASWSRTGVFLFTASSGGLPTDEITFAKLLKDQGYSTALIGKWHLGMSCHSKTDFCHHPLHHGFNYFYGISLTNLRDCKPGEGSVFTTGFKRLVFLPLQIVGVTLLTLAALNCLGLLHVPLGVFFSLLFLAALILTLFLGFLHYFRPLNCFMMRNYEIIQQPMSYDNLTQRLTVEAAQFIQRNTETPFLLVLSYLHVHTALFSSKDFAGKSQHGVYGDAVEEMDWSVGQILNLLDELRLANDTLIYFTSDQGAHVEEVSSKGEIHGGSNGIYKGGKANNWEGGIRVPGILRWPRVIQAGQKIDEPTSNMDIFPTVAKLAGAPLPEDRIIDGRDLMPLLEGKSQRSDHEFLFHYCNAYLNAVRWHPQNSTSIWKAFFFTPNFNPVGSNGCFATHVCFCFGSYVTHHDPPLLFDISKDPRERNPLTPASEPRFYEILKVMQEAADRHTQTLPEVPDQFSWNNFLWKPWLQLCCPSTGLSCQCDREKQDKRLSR
Kind of series: Plate assay, % inhibition. The note with it: for inhibition at 0.1 µM / inhibition at 1 µM / inhibition at 10 µM: read-out: Plate assay % inhibition.

A further series addresses T2, steroid sulphatase (Homo sapiens, UniProt P08842).
T2 construct: Sulphatase-positive human placenta from normal term pregnancies are thoroughly minced with scissors; from tissue; host or cells: human term placenta (2000 g supernatant / microsomes)
Kind of series: Inhibition of steroid sulphatase activity in placental microsomes (Protocol 2). The note with it: for Placental Microsomes % inhibition: superscript 1 or 2 = run with the reference values of that footnote, -ve % means stimulation. In kind it is biochemical.

The mark [1] stands for this setting: 0.1 μM, -ve % means stimulation.

Protocol for STS: The STS inhibition provided by the compounds was determined in accordance with a plate assay and the Protocols set out herein.
Protocol for steroid sulphatase: Inhibition of Steroid Sulphatase Activity in Placental Microsomes
Sulphatase-positive human placenta from normal term pregnancies are thoroughly minced with scissors and washed once with cold phosphate buffer (pH 7.4, 50 mM) then re-suspended in cold phosphate buffer (5 ml/g tissue). Homogenisation is accomplished with an Ultra-Turrax homogeniser, using three 10 second bursts separated by 2 minute cooling periods in ice. Nuclei and cell debris are removed by centrifuging (4° C.) at 2000 g for 30 minutes and portions (2 ml) of the supernatant are stored at 20° C.
Incubations (1 ml) are carried out using a protein concentration of 100 mg/ml, substrate concentration of 20 mM [6,7–3H]oestrone-3-sulphate (specific activity 60 Ci/mmol from New England Nuclear, Boston, Mass., U.S.A.) and an incubation time of 20 minutes at 37° C. If necessary eight concentrations of compounds are employed: 0 (i.e. control); 0.05 mM; 0.1 mM; 0.2 mM; 0.4 mM; 0.6 mM; 0.8 mM; 1.0 mM. After incubation each sample is cooled and the medium (1 ml) was pipetted into separate tubes containing [14C]oestrone (7×10^3 dpm) (specific activity 97 Ci/mmol from Amersham International Radiochemical Centre, Amersham, U.K.). The mixture is shaken thoroughly for 30 seconds with toluene (5 ml). […] A portion (2 ml) of the organic phase was removed, evaporated and the 3H and 14C content of the residue determined by scintillation spectrometry. The mass of oestrone-3-sulphate hydrolysed is calculated from the 3H counts obtained (corrected for the volumes of the medium and organic phase used, and for recovery of [14C]oestrone added) and the specific activity of the substrate.

In the case of `C[C@]12CC[C@@H]3c4ccc(OS(N)(=O)=O)cc4CC[C@H]3[C@@H]1CC[C@@H]2O` [BLE00084], the “Plate assay % inhibition” value at STS (setting [1]) is recorded as 4%; on STS (10 μM, -ve % means stimulation), 23%.
Usually inhibition stands for the relative decrease from the control value, in per cent. For orientation: pIC50 means the IC50 on a negative log10 scale, so that one unit is a factor of ten. High values mean a low IC50, low ones a high IC50. `COc1cc2c(cc1OS(N)(=O)=O)CC[C@@H]1[C@@H]2CC[C@@]2(C)[C@H]1CC[C@@]2(O)Cc1ccc(C(C)(C)C)cc1` [BLE01016, 3-O-Sulfamate 17β-hydroxy-17α-(4-tert-butylbenzyl)-2-methoxyestra-1,3,5(10) -triene]: on STS, the inhibition at 0.1 µM was -14%, the inhibition at 1 µM was -10% and the inhibition at 10 µM was -3%. The compound further had a negative-log IC50 (pIC50) at steroid sulphatase of 5.37.
Turning to `COc1cc2c(cc1OS(N)(=O)=O)CC[C@@H]1[C@@H]2CC[C@@]2(C)[C@H]1CC[C@@]2(O)Cc1ccccc1` [BLE01018, 3-O-Sulfamate 17β-hydroxy-17α-benzyl-2-methoxyestra-1,3,5(10)-triene], on STS, the inhibition at 0.1 µM was -19% and the inhibition at 1 µM was -12%. Also, the pIC50 against steroid sulphatase is 6.37.
Consider `CC12CCC3c4ccc(OS(N)(=O)=O)cc4CCC3C1CCC2OS(N)(=O)=O` (stereo not drawn) [BLE99031B], for which, at STS, the inhibition at 0.1 µM was found to be 7%, the inhibition at 1 µM amounted to 12% and the inhibition at 10 µM was 32%. The compound further gave a negative-log IC50 (pIC50) against steroid sulphatase of 7.70.
With `CC(=O)NS(=O)(=O)O[C@H]1CCC2C3CCc4cc(O)ccc4C3CC[C@@]21C` (stereo partly drawn) [BLE99058], the “Plate assay % inhibition” value on STS (setting [1]) came out at 4%; at STS (1 μM, -ve % means stimulation), 1%. Besides, the “Placental Microsomes % inhibition” value on steroid sulphatase (10 nM) was 0.9^1%; on steroid sulphatase (1 μM), 7.8^1%.
Take `C[C@]12CCC3c4ccc(O)cc4CCC3C1CC[C@@H]2OS(=O)(=O)N(Cc1ccccc1)Cc1ccccc1` (stereo partly drawn) [BLE99060]: the results for the “Placental Microsomes % inhibition” value at steroid sulphatase (10 nM) and at steroid sulphatase (1 μM) were −3.2^2% and 1.36^2%, respectively.
For `C[C@]12CCC3c4ccc(OS(N)(=O)=O)cc4CCC3C1CC[C@@H]2OS(=O)(=O)N(Cc1ccccc1)Cc1ccccc1` (stereo partly drawn) [BLE99063], the “Plate assay % inhibition” value is listed as 0% on STS (setting [1]) and 15% on STS (1 μM, -ve % means stimulation). Besides, the “Placental Microsomes % inhibition” value was −1.9^1% at steroid sulphatase (10 nM) and 38.2^1% at steroid sulphatase (1 μM).
As for `CC(=O)NS(=O)(=O)O[C@H]1CCC2C3CCc4cc(OS(N)(=O)=O)ccc4C3CC[C@@]21C` (stereo partly drawn) [BLE99065], the “Plate assay % inhibition” value at STS (setting [1]) was determined as 7%; on STS (1 μM, -ve % means stimulation), 5%; at STS (10 μM, -ve % means stimulation) it was 23%. Also, the “Placental Microsomes % inhibition” value is reported as 9.8^1% at steroid sulphatase (10 nM) and 91.0^1% at steroid sulphatase (1 μM).
As for `C[C@]12CCC3c4ccc(O)cc4CCC3C1CC[C@H]2OS(=O)(=O)N(Cc1ccccc1)Cc1ccccc1` (stereo partly drawn) [BLE99066], the “Plate assay % inhibition” value came to 11% on STS (setting [1]); 5% on STS (1 μM, -ve % means stimulation); 27% on STS (10 μM, -ve % means stimulation). In addition, the “Placental Microsomes % inhibition” value at steroid sulphatase (10 nM) was 1.4^1%; on steroid sulphatase (1 μM), 4.5^1%.
`CCCCCN(CCCCC)S(=O)(=O)O[C@H]1CCC2C3CCc4cc(O)ccc4C3CC[C@@]21C` (stereo partly drawn) [BLE99073]: the entries for the “Placental Microsomes % inhibition” value on steroid sulphatase (10 nM) and on steroid sulphatase (1 μM) were 1.2^2% and −11.8^2%, respectively.
With `CCCCCN(CCCCC)S(=O)(=O)O[C@H]1CCC2C3CCc4cc(OS(N)(=O)=O)ccc4C3CC[C@@]21C` (stereo partly drawn) [BLE99074], the “Placental Microsomes % inhibition” value at steroid sulphatase (1 μM) is 23.7^2%.
For the compound `NS(=O)(=O)Oc1ccc(C(=O)c2ccccc2)cc1` [Compound 6], the “Plate assay % inhibition” value at STS (0.1 μM) is given as under 1%; at STS (1 μM), 1%; on STS (10 μM) it was 11%.
Consider `NS(=O)(=O)Oc1ccc(C(=O)C=Cc2ccccc2)cc1` [Compound 8], for which the “Plate assay % inhibition” value is recorded as under 1% at STS (0.1 μM), under 4% on STS (1 μM) and 14% on STS (10 μM).
As for `COc1cc2c(cc1OS(N)(=O)=O)CCC1C2CCC2(C)C(OS(N)(=O)=O)CCC12` (stereo not drawn) [OSO2NH2, OMe, C-β-OSO2NH2, α-H], on STS, the inhibition at 0.1 µM is 7%, the inhibition at 1 µM stood at 12% and the inhibition at 10 µM turned out to be 32%.
